According to patent publication US20160280651A1, “COMPOUNDS THAT INDUCE ABA RESPONSES” (THE REGENTS OF THE UNIVERSITY OF CALIFORNIA, priority 2013, published 2016):
pIC50: −log10 of the molar value.

Tests used:
[1] = tested on: HAB1 with PYR/PYL receptors; assay: Receptor-mediated PP2C inhibition assay with HAB1, Example 1; format: biochemical, Arabidopsis
Procedure: (§1) FIG. 2A-FIG. 2C. Novel ABA agonists inhibit PPC2 activity through multiple PYR/PYL. (A) Chemical structure of naturally occurring (+)-ABA and selected ABA agonists. (B) and (C) HAB1, ABU, and ABI2 PP2C enzyme activity based ABA-agonist assays for various receptors in the presence or absence of 10 μM each test chemical.
(§2) FIG. 3A-FIG. 3B. (A) Receptor-mediated dose-dependent inhibition of PP2C enzyme activity by ABA agonists and analogs. (B) Observed compound IC50 values in enzymatic HAB1 PP2C-based ABA-agonist assays.
(§3) FIG. 4A-FIG. 4B. Quinabactin activates multiple ABA receptors. (A) Chemical structures of ABA, pyrabactin and quinabactin. (B) Chemical-dependent inhibition of HAB1 by ABA receptors. IC50 values (nM) were determined as described in the methods using 50 nM HAB1, 50 nM and multiple concentrations of compounds; full dose response curves are provided as in FIG. 3. (nd) correspond to receptors that were not produced as active proteins. The phylogenetic tree is a Neighbor-Joining tree made using the JTT distance matrix in MEGA5 (Tamura K, et al. (2011) MEGA5: Molecular Evolutionary Genetics Analysis Using Maximum Likelihood, Evolutionary Distance, and Maximum Parsimony Methods. Molecular Biology and Evolution 28(10):2731-2739).
(§4) HAB1 and PYL proteins were expressed and purified as described previously (Park S Y, et al. (2009) Abscisic Acid Inhibits Type 2C Protein Phosphatases via the PYR/PYL Family of START Proteins. Science 324(5930):1068-1071), with minor modifications. To obtain GST-HAB1, -ABI1 and -ABI2 fusion proteins, the HAB1 cDNA was cloned into pGex-2T whereas ABI1 and ABI2 cDNAs were cloned into the vector pGex-4T-1. Expression was conducted in BL21[DE3]pLysS host cells. Transformed cells were pre-cultured overnight, transferred to LB medium and cultured at 30° C. to culture A600 of ˜0.5. The culture was then cooled on ice and MnCl2 added to 4 mM and IPTG added to 0.3 mM. After 16 hours incubation at 15° C., cells were harvested and recombinant proteins were purified on glutathione agarose as described previously (Park S Y, et al. (2009). To obtain 6×His-PYL receptor fusion proteins, receptor cDNAs for all 13 ABA receptors were cloned into the vector pET28 and expressed and purified as described previously (Mosquna A, et al. (2011) Potent and selective activation of abscisic acid receptors in vivo by mutational stabilization of their agonist-bound conformation. PNAS 108(51):20838-20843); this yielded soluble and functional protein (assessed using receptor-mediated PP2C inhibition assays) for all receptors except PYL7, PYL11 and PYL12. These three receptors were therefore alternatively expressed as maltose binding (MBP) fusion proteins using the vector pMAL-c; expression of these constructs was carried out in BL21 [DE3]pLysS host strain with the same induction conditions used for GST-HAB1. Recombinant MBP-PYL fusion proteins were purified from sonicated and cleared lysate using amylose resin (New England Biolab, Inc.) using the manufacturers purification instructions. This effort yielded an active MBP-PYL11 fusion protein, but failed for PYL7 and PYL12.
(§5) PP2C activity assays using recombinant receptors and PP2Cs were carried out as follows: Purified proteins were pre-incubated in 80 μl assay buffer containing 10 mM MnCl2, 3 μg bovine serum albumin and 0.1% 2-mercaptoethanol with ABA or ABA agonist for 30 minutes at 22° C. Reactions were started by adding 20 μL of a reaction solution containing 156 mM Tris-OAc, pH 7.9, 330 mM KOAc and 5 mM 4-methylumbelliferyl phosphate after which fluorescence measurements were immediately collected using an excitation filter 355 nm and an emission filter 460 nm on a Wallac plate reader. Reactions contained 50 nM PP2C and 100 nM PYR/PYL proteins, respectively.

[2] = tested on: ABI1 with PYR/PYL receptors; assay: Receptor-mediated PP2C inhibition assay with ABI1, Example 1; format: biochemical, Arabidopsis; conditions: 10 μM; receptors PYR1, PYL1, PYL2, PYL3 and PYL5
Procedure: as §1
HAB1 and PYL proteins were expressed and purified as described previously (Park S Y, et al. (2009) Abscisic Acid Inhibits Type 2C Protein Phosphatases via the PYR/PYL Family of START Proteins. Science 324(5930):1068-1071), with minor modifications. To obtain GST-HAB1, -ABI1 and -ABI2 fusion proteins, the HAB1 cDNA was cloned into pGex-2T whereas ABI1 and ABI2 cDNAs were cloned into the vector pGex-4T-1. […] After 16 hours incubation at 15° C., cells were harvested and recombinant proteins were purified on glutathione agarose as described previously (Park S Y, et al. (2009). To obtain 6×His-PYL receptor fusion proteins, receptor cDNAs for all 13 ABA receptors were cloned into the vector pET28 and expressed and purified as described previously (Mosquna A, et al. (2011) Potent and selective activation of abscisic acid receptors in vivo by mutational stabilization of their agonist-bound conformation. PNAS 108(51):20838-20843); this yielded soluble and functional protein (assessed using receptor-mediated PP2C inhibition assays) for all receptors except PYL7, PYL11 and PYL12. […]

aba2 mutant plants = assay: Rescue of growth defects of ABA-deficient mutant aba2; format: in vivo, Arabidopsis; conditions: 25 μM sprayed two times a day for two weeks; versus DMSO
Procedure: FIG. 16A-FIG. 16B. Application of LC66C6 can rescue growth defects observed in the ABA-deficient mutant aba2. Chemical solution (25 μM) was sprayed on 14-day-plants two times per day for 2 weeks. The image (A) and fresh weight (B) were obtained from 4-week plants.
In this example, 14-day old wild-type and aba2 mutant plants were sprayed with a solution containing 25 μM of agonist two times a day for two weeks. Images and fresh weight were obtained from 4 week old plants.

[3] = molecular target: T1, HAB1 with PYR/PYL receptors (Arabidopsis thaliana, UniProt Q9FLB1); assay: Receptor-mediated PP2C inhibition assay with HAB1, Example 1; format: biochemical; conditions: PYL5
T1 construct: 6xHis (N); made in house; host or cells: E. coli BL21[DE3]pLysS
T1 sequence (Q9FLB1 1-203): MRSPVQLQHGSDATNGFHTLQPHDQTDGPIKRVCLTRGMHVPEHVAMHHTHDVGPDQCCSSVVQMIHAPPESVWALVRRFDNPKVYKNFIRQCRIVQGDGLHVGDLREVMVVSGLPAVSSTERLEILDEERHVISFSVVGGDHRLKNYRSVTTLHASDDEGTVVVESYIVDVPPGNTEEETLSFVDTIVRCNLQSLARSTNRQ
T1 sequence (Q9CAJ0 1-511 partner): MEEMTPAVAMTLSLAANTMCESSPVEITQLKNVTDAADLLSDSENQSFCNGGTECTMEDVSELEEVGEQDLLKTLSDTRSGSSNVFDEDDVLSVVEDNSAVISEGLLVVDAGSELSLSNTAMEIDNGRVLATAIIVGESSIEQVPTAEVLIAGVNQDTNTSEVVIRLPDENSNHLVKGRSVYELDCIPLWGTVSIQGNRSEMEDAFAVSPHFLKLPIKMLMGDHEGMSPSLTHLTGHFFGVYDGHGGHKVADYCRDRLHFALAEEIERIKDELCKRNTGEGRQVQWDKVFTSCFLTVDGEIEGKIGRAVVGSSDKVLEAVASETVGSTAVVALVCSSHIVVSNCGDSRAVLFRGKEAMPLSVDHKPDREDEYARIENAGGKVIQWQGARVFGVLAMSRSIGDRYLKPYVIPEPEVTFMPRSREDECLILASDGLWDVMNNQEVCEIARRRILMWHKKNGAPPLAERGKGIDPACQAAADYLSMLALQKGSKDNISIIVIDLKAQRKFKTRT
Procedure: as §1, §2, §3, §4, §5

| SMILES | PP2C inhibition of HAB1 ([1]; 10 μM, receptors PYR1, PYL1, PYL2, PYL3 and PYL5) [%] | IC50 values of receptor activation ([1]; PYR1, PYLs 1-3 and PYL5) | Agonist strength compared with ABA ([1]; PYR1 or PYL1) | Maximal PP2C inhibition compared with pyrabactin ([1]; all receptors tested) | PP2C inhibition of ABI1 [2] [%] | Size of aba2 mutant plants (aba2 mutant plants) | PP2C inhibition at saturation [3] [%] | pIC50 ([3]; read-out: IC50 of PYL5 activation) |
| --- | --- | --- | --- | --- | --- | --- | --- | --- |
| CCCN1C(=O)CCc2cc(NS(=O)(=O)Cc3ccc(C)cc3)ccc21 [LC66C6] | > 70 | submicromolar | stronger PYR1 or PYL1 agonist than ABA | higher than that observed with pyrabactin with all receptors tested | > 70 | significantly increased the size of the mutant plants |  |  |
| O=S(=O)(NCc1ccccn1)c1ccc(Br)c2ccccc12 [pyrabactin, reference compound] |  |  |  |  |  |  | ~40 | 6.05 |
